Results on 31 molecules are retold here after patent US12404268B2, “2-heteroaryl aminoquinazolinone derivative” (Sumitomo Pharma Co., Ltd., priority 2020, dated 2025).

The structures appear in SMILES notation. pIC50: −log10 of the molar value.

Series [1] has as its system male Slc:ddY mice (pentetrazol-induced clonic seizure). Briefly: Model subcutaneously injected with pentetrazol (minimum seizure model, scPTZ). The series is classed as in vivo, mouse. The following applies: 85 mg/kg pentetrazol s.c. 1 hour after oral dosing, observed 30 minutes. Here is the method:
Evaluation of Model Subcutaneously Injected with Pentetrazol (Minimum Seizure Model, scPTZ)
This test evaluates the antiseizure effect of a medicament. The animal model used in this test is a phenotype of generalized absence seizure or myoclonic seizure. The test compound was orally administered to male Slc:ddY mice (group of five, body weight: 20 to 30 g), and 85 mg of pentetrazol/kg was subcutaneously administered 1 hour later. The presence/absence of expression of clonic seizure during 30 minutes was then observed. The dose at which […] (ED50) was calculated. 0.5% methylcellulose solution was administered for the control.

The subject of series [2] is neurons induced to differentiate from SCN1A gene deficient human iPS cells. Briefly: Test for measuring hyperexcitation suppression activity (spontaneous calcium oscillation frequency). The class given is cell-based. The following applies: Neuron; for inhibition at 0.1 µM / inhibition at 1 µM / inhibition at 10 µM / inhibition at 100 µM: Homo sapiens, read-out: inhibition rate; for pIC50: SCN1A gene deficient human iPS cell-derived neurons, FLIPR Calcium 6, FDSS7000EX, read-out: IC50 (50% inhibitory concentration, frequency of spontaneous calcium oscillation). The essentials:
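SCN1A-deficient iPS-derived neurons used from day 60 of differentiation, loaded 30 min with Calcium 6 probe. Compounds at final 0.1–100 μM; spontaneous calcium oscillation frequency recorded on FDSS7000EX, with the last 2 of 8 min post-addition expressed relative to the 2 min baseline.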

For series [3], the system named is SCN1A loss-of-function genetic mutation mice (epileptic spike). Briefly: Evaluation of epileptic spike using SCN1A-mutated animal. The class given is in vivo, mouse. As to conditions: F1 SCN1A-mutated mice; spike frequency over 3 hours before and after administration. The procedure: Evaluation of Epileptic Spike Using SCN1A-Mutated Animal
This test evaluates the inhibitory effect of a medicament on epileptic spike expressed with an SCN1A loss-of-function genetic mutation.
Febrile seizure was induced in the SCN1A-mutated mice (6 to 10 week old) described above from increasing the body temperature by placing and continuously incubating the mice in a plastic chamber whose internal temperature was increased by incubation using a warm bath of about 43° C. After two weeks from inducing febrile seizure, a head mount (cat #8201-SS, Pinnacle Technology) was mounted on the head of the mice. Two weeks after mounting the head mount, the F1 SCN1A loss-of-function genetic mutation mice (25 to 32 g) were connected to a seizure EEG recording system (Pinnacle Technology), and the test compound was administered. The epileptic spike frequency over 3 hours before and after administration of the compound was measured, and the dose at which epileptic spike frequency is suppressed to 50% after the administration (ED50) was calculated.

In series [4] the test system is male Slc:ddy mice. The experiment in a line: Rotarod evaluation (motor coordination). The class given is in vivo, mouse. The following applies: rotarod 15 rpm, 50 minutes after oral dosing, 180 seconds. The procedure: The test evaluates the effect of suppressing the ability of motor coordination of a medicament. Male Slc:ddy mice (body weight: 20 to 30 g) were trained to walk for 5 minutes with a rotarod apparatus (apparatus for rotating a cylindrical bar with a 4 cm diameter, 12 rpm) on the day of the test. A test compound was orally administered to a group of 5 mice. […] Animals that fell off within 180 seconds due to incoordination were counted. […] 0.5% methylcellulose solution was administered for the control.
On the technique in general: Falling from the rotarod earlier than controls is read as motor impairment.

Series [5] concerns male Slc:ddY mice (electroshock-induced tonic extensor seizure). The experiment in a line: Maximal electroshock seizure (MES) model. The following applies: corneal stimulation 60 Hz, 50 mA, 0.2 seconds 1 hour after oral dosing. The class given is in vivo, mouse. Here is the method: Evaluation of Maximal Electroshock Seizure (MES) Model
This test evaluates the antiseizure effect of a medicament in the same manner as Test Example 3. The animal model used in this test is a phenotype of generalized tonic-clonic seizure and secondary generalized partial seizure. The test compound was orally administered to male Slc:ddY mice (group of five, body weight: 20 to 30 g), and electrical stimulation (60 Hz, 50 mA, 0.2 seconds) was applied through the cornea 1 hour later. Suppression of induced expression of tonic extensor seizure of the rear limb was observed. The dose at which […] (ED50) was calculated. 0.5% methylcellulose solution was administered for the control.
(In general: The maximal electroshock test induces tonic seizures with an electrical stimulus.)

For orientation: inhibition means the percentage by which the read-out fell short of the control. As to `Cc1ccccc1-n1c(Nc2cccnc2)nc2ccc(C#N)cc2c1=O` [Example 109, 4-oxo-2-(pyridin-3-ylamino)-3-(o-tolyl)-3,4-dihydroquinazoline-6-carbonitrile], the “ED50 (clonic seizure)” value in series [1] is reported as 0.25 mg/kg, p.o. Moreover, the inhibition at 0.1 µM in series [2] was 59%. Besides, the “ED50 (dose at which epileptic spike frequency is suppressed to 50%)” value in series [3] was 0.19 mg/kg, p.o. Moreover, the “TD50 (dosage at which 50% of animals fall off)” value in series [4] is listed as 2.0 mg/kg, p.o.

For the molecule `Cc1ccccc1-n1c(Nc2cncc(F)c2)nc2ccc(C#N)cc2c1=O` [Example 114, 2-((5-fluoropyridin-3-yl)amino)-4-oxo-3-(o-tolyl)-3,4-dihydroquinazoline-6-carbonitrile], the “ED50 (clonic seizure)” value in series [1] is reported as 0.065 mg/kg, p.o. For the same molecule, the inhibition at 0.1 µM in series [2] stood at 55%. Moreover, the “ED50 (dose at which epileptic spike frequency is suppressed to 50%)” value in series [3] is recorded as 0.044 mg/kg, p.o. Further, in series [4], the “TD50 (dosage at which 50% of animals fall off)” value is 0.2 mg/kg, p.o.

In the case of `O=c1c2cc(F)cc(F)c2nc(Nc2cccnc2)n1-c1ccccc1` [Example 32, 6,8-difluoro-3-phenyl-2-(pyridin-3-ylamino)quinazolin-4(3H)-one], the “ED50 (clonic seizure)” value in series [1] is 4.17 mg/kg, p.o. For the same molecule, the inhibition at 1 µM in series [2] was 80%. Moreover, in series [3], the “ED50 (dose at which epileptic spike frequency is suppressed to 50%)” value was 1.48 mg/kg, p.o. Also, in series [4], the “TD50 (dosage at which 50% of animals fall off)” value was 8.83 mg/kg, p.o.

For `N#Cc1ccc2nc(Nc3cccnc3)n(-c3ccccc3)c(=O)c2c1` [Example 3, 4-oxo-3-phenyl-2-(pyridin-3-ylamino)-3,4-dihydroquinazoline-6-carbonitrile], in series [1], the “ED50 (clonic seizure)” value is 0.74 mg/kg, p.o. Also, the inhibition at 1 µM in series [2] was found to be 97%. In addition, the “ED50 (dose at which epileptic spike frequency is suppressed to 50%)” value in series [3] is 0.66 mg/kg, p.o. In series [4], the “TD50 (dosage at which 50% of animals fall off)” value is listed as 2.0 mg/kg, p.o.

Take `O=c1c2ccccc2nc(Nc2cccnc2)n1-c1ccccc1` [Example 14, 3-phenyl-2-(pyridin-3-ylamino)quinazolin-4(3H)-one]: the “ED50 (clonic seizure)” value in series [1] was 4.17 mg/kg, p.o. In addition, in series [2], the pIC50 was 5.74. Further, the “ED50 (dose at which epileptic spike frequency is suppressed to 50%)” value in series [3] was 5.83 mg/kg, p.o. Further, the “TD50 (dosage at which 50% of animals fall off)” value in series [4] is recorded as 7.38 mg/kg, p.o.

`O=c1c2cc(F)ccc2nc(Nc2cncc(F)c2)n1-c1ccccc1` [Example 40, 6-fluoro-2-((5-fluoropyridin-3-yl)amino)-3-phenylquinazolin-4(3H)-one]: in series [5], the “ED50 (tonic extensor seizure)” value was 0.56 mg/kg, p.o. In addition, the “ED50 (clonic seizure)” value in series [1] is recorded as 0.27 mg/kg, p.o. For the same molecule, in series [2], the inhibition at 1 µM amounted to 100%. Also, in series [3], the “ED50 (dose at which epileptic spike frequency is suppressed to 50%)” value was 0.12 mg/kg, p.o. In series [4], the “TD50 (dosage at which 50% of animals fall off)” value is listed as 1.8 mg/kg, p.o.

Take `O=c1c2cc(F)ccc2nc(Nc2cccnc2)n1-c1ccccc1` [Example 12, 6-fluoro-3-phenyl-2-(pyridin-3-ylamino)quinazolin-4(3H)-one]: the “ED50 (tonic extensor seizure)” value in series [5] is 0.56 mg/kg, p.o. For the same molecule, the “ED50 (clonic seizure)” value in series [1] is recorded as 0.25 mg/kg, p.o. Moreover, the pIC50 in series [2] was 6.70. Further, in series [3], the “ED50 (dose at which epileptic spike frequency is suppressed to 50%)” value was 0.18 mg/kg, p.o. Also, in series [4], the “TD50 (dosage at which 50% of animals fall off)” value is listed as 1.8 mg/kg, p.o.

Turning to `CN1C[C@H]2CC[C@@H](C1)[C@@H]2n1c(Nc2cccnc2)nc2ccc(F)cc2c1=O` [Example 208], in series [2], the pIC50 is less than 4.00.

With `Cc1ccc(-n2c(Nc3cccnc3)nc3ccc(F)cc3c2=O)cc1` [Example 105, 6-fluoro-2-(pyridin-3-ylamino)-3-(p-tolyl)quinazolin-4(3H)-one], in series [2], the inhibition at 1 µM amounted to 100%.

As to `O=c1c2cc(F)ccc2nc(Nc2cccnc2)n1[C@H]1CCCOC1` [Example 164], in series [2], the inhibition at 10 µM worked out at 92%.

`CN(C)CCn1c(Nc2cccnc2)nc2ccc(F)cc2c1=O` [Example 207]: the pIC50 in series [2] was less than 5.00.

For `O=c1c2ccc(F)cc2nc(Nc2cncc(F)c2)n1-c1ccccc1` [Example 226], in series [2], the pIC50 is less than 4.00.

In the case of `Cn1cnc2c(Nc3nc4ccccc4c(=O)n3-c3ccccc3)cccc21` [Example 93], the inhibition at 10 µM in series [2] came out at 53%.

On to `CN(C)c1ccc2nc(Nc3cccnc3)n(-c3ccccc3)c(=O)c2c1` [Example 212], for which, in series [2], the pIC50 was less than 5.00.

On to `CN1CC[C@@H](n2c(Nc3cccnc3)nc3ccccc3c2=O)C1` [Example 96], for which the inhibition at 100 µM in series [2] was determined as 100%.

On to `O=c1c2ccccc2nc(Nc2cccc3ocnc23)n1-c1ccccc1` [Example 99], for which, in series [2], the inhibition at 10 µM turned out to be 94%.

Regarding `N#Cc1ccc2nc(Nc3cccnc3)n(-c3ccccc3F)c(=O)c2c1` [Example 110], the inhibition at 1 µM in series [2] came to 66%.

Consider `Cc1ccccc1C1(n2c(Nc3cccnc3)nc3ccc(F)cc3c2=O)CC1` [Example 167], for which the inhibition at 10 µM in series [2] was 100%.

As for `COc1cc(F)cc2c(=O)n(-c3ccccc3)c(Nc3cccnc3)nc12` [Example 17], in series [2], the inhibition at 100 µM worked out at 17%.

For `O=c1c2cc(F)cnc2nc(Nc2cccnc2)n1-c1ccccc1` [Example 162], the inhibition at 10 µM in series [2] is 39%.

On to `COc1cccc(Nc2nc3ccc(F)cc3c(=O)n2-c2ccccc2)n1` [Example 130], for which, in series [2], the inhibition at 1 µM was 44%.

As for `Cc1ccncc1Nc1nc2ccc(Cl)cc2c(=O)n1-c1ccccc1` [Example 147], in series [2], the pIC50 is 5.57.

Consider `O=c1c2cc(Cl)ccc2nc(Nc2ncns2)n1-c1ccccc1` [Example 230], for which, in series [2], the inhibition at 10 µM is 2%.

Turning to `Cc1ccc(Nc2nc3ccc(F)cc3c(=O)n2-c2ccccc2)nc1` [Example 137, 6-fluoro-2-((5-methylpyridin-2-yl)amino)-3-phenylquinazolin-4(3H)-one], the inhibition at 1 µM in series [2] worked out at 85%.

As to `COCCn1c(Nc2cccnc2)nc2ccc(F)cc2c1=O` [Example 203], the pIC50 in series [2] is less than 5.00.

As for `Cc1cc(Nc2nc3ccc(F)cc3c(=O)n2-c2ccccc2)ccn1` [Example 139], the inhibition at 10 µM in series [2] worked out at 100%.

Regarding `O=c1c2cc(Cl)ccc2nc(Nc2ccncc2)n1-c1ccccc1` [Example 33], in series [2], the inhibition at 10 µM is 100%.

In the case of `CC(=O)Nc1ccc2nc(Nc3cccnc3)n(-c3ccccc3)c(=O)c2c1` [Example 210], in series [2], the pIC50 is less than 4.00.

Take `O=c1c2cc(F)ccc2nc(Nc2cccnc2)n1-c1cccc(F)c1` [Example 123]: in series [2], the inhibition at 1 µM stood at 56%.

`Cc1cncc(Nc2nc3ccc(F)cc3c(=O)n2-c2ccccc2)c1` [Example 27]: in series [2], the inhibition at 1 µM was determined as 37%.

`Cn1ncc2ccc(Nc3nc4ccccc4c(=O)n3-c3ccccc3)cc21` [Example 54, 2-((1-methyl-1H-indazol-6-yl)amino)-3-phenylquinazolin-4(3H)-one]: the inhibition at 1 µM in series [2] was 95%.
